Two molecules from ChEMBL document CHEMBL4507291 (2021) can be followed below.

Test [1] concerns the target Serine/threonine-protein kinase MAK (Homo sapiens) (UniProt P20794).
Test [2] has as its target T1, Serine/threonine-protein kinase TAO2 (Homo sapiens) (UniProt Q9UL54).
T1 sequence (whole entry): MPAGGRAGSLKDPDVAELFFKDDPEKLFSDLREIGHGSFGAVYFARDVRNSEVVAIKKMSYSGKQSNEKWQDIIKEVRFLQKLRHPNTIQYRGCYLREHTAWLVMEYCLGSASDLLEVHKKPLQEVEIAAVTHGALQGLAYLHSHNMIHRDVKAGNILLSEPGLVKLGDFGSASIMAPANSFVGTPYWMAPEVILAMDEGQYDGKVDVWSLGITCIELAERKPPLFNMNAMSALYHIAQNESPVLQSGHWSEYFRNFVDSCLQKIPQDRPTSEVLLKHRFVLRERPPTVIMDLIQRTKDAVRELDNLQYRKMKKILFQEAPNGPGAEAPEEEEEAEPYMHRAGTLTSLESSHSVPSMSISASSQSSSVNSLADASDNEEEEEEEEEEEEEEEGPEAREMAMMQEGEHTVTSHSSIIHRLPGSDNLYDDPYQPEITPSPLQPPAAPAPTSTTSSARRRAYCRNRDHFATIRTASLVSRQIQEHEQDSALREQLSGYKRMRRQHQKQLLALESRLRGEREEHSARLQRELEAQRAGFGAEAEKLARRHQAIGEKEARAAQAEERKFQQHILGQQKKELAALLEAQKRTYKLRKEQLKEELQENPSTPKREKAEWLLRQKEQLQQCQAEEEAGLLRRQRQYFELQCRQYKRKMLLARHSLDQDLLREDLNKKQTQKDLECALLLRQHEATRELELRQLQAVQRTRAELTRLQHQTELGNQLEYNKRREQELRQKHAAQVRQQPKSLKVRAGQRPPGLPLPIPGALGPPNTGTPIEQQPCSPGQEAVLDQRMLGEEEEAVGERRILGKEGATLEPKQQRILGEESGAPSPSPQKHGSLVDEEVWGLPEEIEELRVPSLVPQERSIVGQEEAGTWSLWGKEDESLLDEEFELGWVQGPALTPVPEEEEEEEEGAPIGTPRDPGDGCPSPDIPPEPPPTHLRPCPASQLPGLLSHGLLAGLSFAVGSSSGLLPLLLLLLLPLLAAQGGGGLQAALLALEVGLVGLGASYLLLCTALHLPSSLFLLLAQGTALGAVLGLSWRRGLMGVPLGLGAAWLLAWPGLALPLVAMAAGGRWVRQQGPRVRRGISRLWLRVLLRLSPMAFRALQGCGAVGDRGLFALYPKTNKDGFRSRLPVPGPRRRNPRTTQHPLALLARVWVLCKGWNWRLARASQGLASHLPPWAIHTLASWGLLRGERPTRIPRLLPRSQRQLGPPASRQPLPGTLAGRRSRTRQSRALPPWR

Test [3] has as its target Mitogen-activated protein kinase kinase kinase 12 (Homo sapiens) (UniProt Q12852).
The target in test [4] is Receptor-type tyrosine-protein kinase FLT3 (Homo sapiens) (UniProt P36888).
In test [5] the target is Serine/threonine-protein kinase 32C (Homo sapiens) (UniProt Q86UX6).
In test [6] the test system is Tyrosine-protein kinase ABL1 (Homo sapiens), P00519 [F317L].
The target of test [7] is Mitogen-activated protein kinase kinase kinase 4 (Homo sapiens) (UniProt Q9Y6R4).
Test [8] addresses Mitogen-activated protein kinase 15 (Homo sapiens) (UniProt Q8TD08).
In test [9] the target is Phosphatidylinositol 5-phosphate 4-kinase type-2 beta (Homo sapiens) (UniProt P78356).
Test [10] deals with Phosphatidylinositol 4,5-bisphosphate 3-kinase catalytic subunit alpha isoform (Homo sapiens), P42336 [Q546K].
For test [11], the target named is T2, MAP kinase-activated protein kinase 5 (Homo sapiens) (UniProt Q8IW41).
T2 sequence (whole entry): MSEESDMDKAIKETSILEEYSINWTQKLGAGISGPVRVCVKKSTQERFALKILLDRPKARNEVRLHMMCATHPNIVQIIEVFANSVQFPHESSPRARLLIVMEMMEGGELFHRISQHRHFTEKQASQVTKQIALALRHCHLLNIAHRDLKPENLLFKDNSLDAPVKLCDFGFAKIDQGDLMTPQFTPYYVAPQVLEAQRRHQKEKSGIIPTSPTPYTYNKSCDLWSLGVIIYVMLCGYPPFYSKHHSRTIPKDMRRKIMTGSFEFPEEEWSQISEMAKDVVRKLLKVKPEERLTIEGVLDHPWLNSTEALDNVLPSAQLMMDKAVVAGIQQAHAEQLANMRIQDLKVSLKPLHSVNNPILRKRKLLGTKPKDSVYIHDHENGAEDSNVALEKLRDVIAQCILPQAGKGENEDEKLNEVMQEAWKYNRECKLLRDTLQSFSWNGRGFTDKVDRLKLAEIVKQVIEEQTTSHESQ

Test [12] addresses Serine/threonine-protein kinase SIK3 (Homo sapiens) (UniProt Q9Y2K2).
Test [13] deals with Cyclin-dependent kinase 15 (Homo sapiens) (UniProt Q96Q40).
Test [14] concerns the target Serine/threonine-protein kinase RIO1 (Homo sapiens) (UniProt Q9BRS2).
The target of test [15] is Hormonally up-regulated neu tumor-associated kinase (Homo sapiens) (UniProt P57058).
In test [16] the target is Transient receptor potential cation channel subfamily M member 6 (Homo sapiens) (UniProt Q9BX84).
Test [17] concerns the target MAP kinase-interacting serine/threonine-protein kinase 1 (Homo sapiens) (UniProt Q9BUB5).
For test [18], the system named is Mast/stem cell growth factor receptor Kit (Homo sapiens), P10721 [D816V].
Test [19] deals with Ribosomal protein S6 kinase beta-1 (Homo sapiens) (UniProt P23443).
In test [20] the target is Activated CDC42 kinase 1 (Homo sapiens) (UniProt Q07912).
Setting [21] is: Compound concentration 100.0 nM.
[22] abbreviates: Compound concentration 1000.0 nM.

Mast/stem cell growth factor receptor Kit (Homo sapiens), P10721 [D816V], sequence (P10721 whole entry D816V): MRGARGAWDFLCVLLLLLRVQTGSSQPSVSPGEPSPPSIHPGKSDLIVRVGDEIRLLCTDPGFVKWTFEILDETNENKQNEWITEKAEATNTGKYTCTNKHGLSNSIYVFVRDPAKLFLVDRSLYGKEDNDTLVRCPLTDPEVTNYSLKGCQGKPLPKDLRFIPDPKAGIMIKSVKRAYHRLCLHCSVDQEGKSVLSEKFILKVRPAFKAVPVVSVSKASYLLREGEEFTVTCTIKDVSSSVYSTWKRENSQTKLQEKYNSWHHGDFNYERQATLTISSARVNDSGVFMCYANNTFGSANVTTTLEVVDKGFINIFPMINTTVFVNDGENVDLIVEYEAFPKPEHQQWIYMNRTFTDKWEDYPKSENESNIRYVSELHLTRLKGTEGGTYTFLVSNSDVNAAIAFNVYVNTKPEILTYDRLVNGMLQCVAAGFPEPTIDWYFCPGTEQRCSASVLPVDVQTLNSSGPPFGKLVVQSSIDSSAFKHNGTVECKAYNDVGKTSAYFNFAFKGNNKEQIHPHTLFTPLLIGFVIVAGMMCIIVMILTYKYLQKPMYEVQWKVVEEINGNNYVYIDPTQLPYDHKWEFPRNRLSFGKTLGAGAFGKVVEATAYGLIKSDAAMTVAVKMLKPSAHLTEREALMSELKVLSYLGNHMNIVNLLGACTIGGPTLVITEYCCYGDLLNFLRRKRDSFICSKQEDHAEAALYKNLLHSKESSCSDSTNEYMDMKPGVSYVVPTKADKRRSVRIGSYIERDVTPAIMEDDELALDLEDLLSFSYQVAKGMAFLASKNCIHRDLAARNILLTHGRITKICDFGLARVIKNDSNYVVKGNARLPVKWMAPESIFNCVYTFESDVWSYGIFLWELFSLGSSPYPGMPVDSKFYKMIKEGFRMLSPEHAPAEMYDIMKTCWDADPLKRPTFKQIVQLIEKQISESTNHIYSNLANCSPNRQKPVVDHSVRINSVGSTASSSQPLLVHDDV
Serine/threonine-protein kinase RIO1 (Homo sapiens), sequence (Q9BRS2 whole entry): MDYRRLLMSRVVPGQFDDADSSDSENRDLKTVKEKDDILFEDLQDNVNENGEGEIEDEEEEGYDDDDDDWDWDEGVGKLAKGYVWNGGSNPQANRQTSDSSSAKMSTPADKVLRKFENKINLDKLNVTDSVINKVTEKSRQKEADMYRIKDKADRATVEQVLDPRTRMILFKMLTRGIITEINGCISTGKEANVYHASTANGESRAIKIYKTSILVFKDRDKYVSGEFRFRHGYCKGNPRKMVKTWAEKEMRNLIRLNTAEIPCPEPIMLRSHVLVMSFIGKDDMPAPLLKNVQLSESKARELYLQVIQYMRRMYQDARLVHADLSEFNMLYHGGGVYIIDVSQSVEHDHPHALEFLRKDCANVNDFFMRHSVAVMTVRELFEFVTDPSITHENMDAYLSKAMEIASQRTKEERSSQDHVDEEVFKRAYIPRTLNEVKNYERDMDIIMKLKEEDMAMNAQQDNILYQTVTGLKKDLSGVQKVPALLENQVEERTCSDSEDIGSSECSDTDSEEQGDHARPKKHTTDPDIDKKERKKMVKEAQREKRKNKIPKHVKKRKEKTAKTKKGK
Activated CDC42 kinase 1 (Homo sapiens), sequence (Q07912 whole entry, looked up): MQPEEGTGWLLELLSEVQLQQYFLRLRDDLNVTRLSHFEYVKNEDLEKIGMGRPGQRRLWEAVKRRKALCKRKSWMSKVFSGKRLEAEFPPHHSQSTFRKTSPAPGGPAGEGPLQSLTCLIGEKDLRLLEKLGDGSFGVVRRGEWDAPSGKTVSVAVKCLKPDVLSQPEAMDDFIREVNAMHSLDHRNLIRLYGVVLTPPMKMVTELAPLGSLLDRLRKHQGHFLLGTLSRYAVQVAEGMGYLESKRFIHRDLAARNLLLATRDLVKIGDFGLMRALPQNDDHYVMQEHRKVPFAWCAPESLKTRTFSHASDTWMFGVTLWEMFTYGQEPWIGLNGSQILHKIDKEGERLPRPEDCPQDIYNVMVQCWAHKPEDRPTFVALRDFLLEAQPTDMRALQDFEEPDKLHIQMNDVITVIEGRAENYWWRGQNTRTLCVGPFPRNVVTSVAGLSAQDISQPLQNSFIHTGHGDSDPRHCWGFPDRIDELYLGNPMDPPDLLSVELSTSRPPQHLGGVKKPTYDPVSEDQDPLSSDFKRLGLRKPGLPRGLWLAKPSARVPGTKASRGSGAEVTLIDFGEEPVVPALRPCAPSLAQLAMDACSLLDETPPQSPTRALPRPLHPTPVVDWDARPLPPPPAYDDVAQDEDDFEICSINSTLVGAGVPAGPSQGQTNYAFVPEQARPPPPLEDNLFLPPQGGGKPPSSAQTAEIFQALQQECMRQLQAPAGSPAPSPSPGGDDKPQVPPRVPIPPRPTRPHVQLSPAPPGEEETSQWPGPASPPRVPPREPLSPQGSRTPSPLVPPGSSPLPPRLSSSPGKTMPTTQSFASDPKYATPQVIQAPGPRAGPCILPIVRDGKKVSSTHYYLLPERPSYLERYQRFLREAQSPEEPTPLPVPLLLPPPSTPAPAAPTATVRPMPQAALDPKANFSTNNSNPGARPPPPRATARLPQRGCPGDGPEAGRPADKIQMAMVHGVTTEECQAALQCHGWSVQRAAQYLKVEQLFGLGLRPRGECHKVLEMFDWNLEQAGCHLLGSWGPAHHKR
Mitogen-activated protein kinase kinase kinase 4 (Homo sapiens), sequence (Q9Y6R4 whole entry): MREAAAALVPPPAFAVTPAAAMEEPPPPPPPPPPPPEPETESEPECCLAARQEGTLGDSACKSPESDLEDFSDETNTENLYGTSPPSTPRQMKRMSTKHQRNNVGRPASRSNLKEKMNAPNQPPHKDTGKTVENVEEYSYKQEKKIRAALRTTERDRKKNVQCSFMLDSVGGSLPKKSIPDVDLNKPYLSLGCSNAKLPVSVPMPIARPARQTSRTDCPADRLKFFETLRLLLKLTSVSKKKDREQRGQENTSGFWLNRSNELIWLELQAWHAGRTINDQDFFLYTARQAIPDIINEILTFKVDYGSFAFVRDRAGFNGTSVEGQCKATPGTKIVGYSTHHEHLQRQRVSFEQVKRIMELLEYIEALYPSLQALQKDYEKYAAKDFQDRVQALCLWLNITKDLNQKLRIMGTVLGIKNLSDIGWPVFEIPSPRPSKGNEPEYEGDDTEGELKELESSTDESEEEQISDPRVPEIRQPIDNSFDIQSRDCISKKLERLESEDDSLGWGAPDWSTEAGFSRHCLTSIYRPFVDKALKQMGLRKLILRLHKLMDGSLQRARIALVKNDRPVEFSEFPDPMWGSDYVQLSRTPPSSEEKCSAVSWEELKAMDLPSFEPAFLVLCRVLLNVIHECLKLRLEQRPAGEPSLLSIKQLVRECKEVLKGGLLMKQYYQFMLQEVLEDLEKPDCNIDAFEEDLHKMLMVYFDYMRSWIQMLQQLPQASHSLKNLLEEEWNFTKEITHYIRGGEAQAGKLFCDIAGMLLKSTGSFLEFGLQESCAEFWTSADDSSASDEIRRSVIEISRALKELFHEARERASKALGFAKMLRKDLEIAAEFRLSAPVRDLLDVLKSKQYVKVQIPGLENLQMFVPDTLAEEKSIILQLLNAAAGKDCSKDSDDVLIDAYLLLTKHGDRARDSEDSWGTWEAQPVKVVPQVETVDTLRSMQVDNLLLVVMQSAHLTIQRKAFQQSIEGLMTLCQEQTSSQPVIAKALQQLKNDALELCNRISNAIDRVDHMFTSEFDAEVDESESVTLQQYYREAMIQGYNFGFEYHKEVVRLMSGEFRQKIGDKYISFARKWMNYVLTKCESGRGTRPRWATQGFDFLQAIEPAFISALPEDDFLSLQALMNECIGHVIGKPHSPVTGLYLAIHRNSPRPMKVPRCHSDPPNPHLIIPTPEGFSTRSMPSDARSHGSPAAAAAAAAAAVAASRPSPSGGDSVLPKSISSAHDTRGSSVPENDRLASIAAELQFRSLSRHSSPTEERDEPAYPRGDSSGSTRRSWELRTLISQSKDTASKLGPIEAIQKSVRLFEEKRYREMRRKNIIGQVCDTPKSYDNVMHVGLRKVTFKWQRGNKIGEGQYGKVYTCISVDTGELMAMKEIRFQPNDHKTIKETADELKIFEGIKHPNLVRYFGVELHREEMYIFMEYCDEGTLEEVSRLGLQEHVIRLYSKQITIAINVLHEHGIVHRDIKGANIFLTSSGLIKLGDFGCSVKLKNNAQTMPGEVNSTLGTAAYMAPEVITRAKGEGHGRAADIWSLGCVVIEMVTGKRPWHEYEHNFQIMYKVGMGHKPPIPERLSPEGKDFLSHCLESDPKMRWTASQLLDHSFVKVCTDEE
Phosphatidylinositol 5-phosphate 4-kinase type-2 beta (Homo sapiens), sequence (P78356 whole entry, canonical isoform): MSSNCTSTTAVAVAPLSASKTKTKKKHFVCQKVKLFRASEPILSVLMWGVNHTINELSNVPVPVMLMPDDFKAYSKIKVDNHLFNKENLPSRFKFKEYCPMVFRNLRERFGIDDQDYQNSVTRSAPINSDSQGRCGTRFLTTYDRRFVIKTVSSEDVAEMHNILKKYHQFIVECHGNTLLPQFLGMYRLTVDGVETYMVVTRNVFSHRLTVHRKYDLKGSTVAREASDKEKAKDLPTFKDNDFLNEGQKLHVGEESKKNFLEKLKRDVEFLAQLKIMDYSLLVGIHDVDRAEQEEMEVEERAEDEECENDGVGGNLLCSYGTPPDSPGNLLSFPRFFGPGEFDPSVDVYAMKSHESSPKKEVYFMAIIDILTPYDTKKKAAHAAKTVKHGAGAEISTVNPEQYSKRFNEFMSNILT
MAP kinase-interacting serine/threonine-protein kinase 1 (Homo sapiens), sequence (Q9BUB5 whole entry, looked up): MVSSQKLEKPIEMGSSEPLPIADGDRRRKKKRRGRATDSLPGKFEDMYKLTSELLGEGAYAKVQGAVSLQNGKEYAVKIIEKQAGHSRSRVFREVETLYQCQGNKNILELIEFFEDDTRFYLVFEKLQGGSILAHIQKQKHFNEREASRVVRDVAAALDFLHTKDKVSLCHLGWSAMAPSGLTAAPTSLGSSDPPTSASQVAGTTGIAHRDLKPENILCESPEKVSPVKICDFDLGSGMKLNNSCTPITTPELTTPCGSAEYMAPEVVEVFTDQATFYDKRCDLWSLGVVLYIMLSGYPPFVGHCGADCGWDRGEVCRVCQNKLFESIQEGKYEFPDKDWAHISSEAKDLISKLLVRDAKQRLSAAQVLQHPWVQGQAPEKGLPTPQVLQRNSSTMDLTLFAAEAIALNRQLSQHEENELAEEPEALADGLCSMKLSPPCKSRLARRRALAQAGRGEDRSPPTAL

As to `C[C@@H]1CN(c2cc(-c3n[nH]c4ccc(OC5(C)CC5)cc34)ncn2)C[C@H](C)O1` [MLi-2], the residual activity in test [1] (setting [21]) is 95%; in [2] (setting [21]), 73%; in test [3] (setting [21]), 82%; in test [4] (setting [21]) it was 87%; in test [5] (setting [21]), 89%; in test [6] (setting [21]), 73%. Moreover, the residual activity in [7] (setting [21]) was 100%; in test [8] (setting [21]), 81%; in [9] (setting [21]), 81%; in test [10] (setting [21]), 69%; in test [11] (setting [21]) it was 93%; in test [12] (setting [21]), 74%. The residual activity in test [13] (setting [21]) is 100%; in test [14] (setting [21]), 100%; in test [15] (setting [21]) it was 79%; in test [16] (setting [21]), 64%; in [17] (setting [21]), 67%; in test [18] (setting [21]) it was 79%. Moreover, the results for the residual activity in test [19] (setting [21]) and in [20] (setting [21]) were 73% and 79%, respectively.
`C[C@@H]1CN(c2cc(-c3nn(C)c4ccc(OC5(C)CC5)cc34)ncn2)C[C@H](C)O1` [MLi-2-NC]: the residual activity is 100% in test [1] (setting [22]); 80% in [2] (setting [22]); 61% in test [3] (setting [22]); 77% in test [4] (setting [22]); 100% in test [5] (setting [22]); 67% in test [6] (setting [22]). The residual activity is 100% in [7] (setting [22]); 72% in [8] (setting [22]); 84% in test [9] (setting [22]); 39% in test [10] (setting [22]); 73% in [11] (setting [22]); 63% in [12] (setting [22]). Moreover, the residual activity in test [13] (setting [22]) was 84%; in test [14] (setting [22]), 89%; in [15] (setting [22]) it was 100%; in test [16] (setting [22]), 85%; in [17] (setting [22]), 79%; in test [18] (setting [22]), 94%. Further, the values for the residual activity in test [19] (setting [22]) and in test [20] (setting [22]) were 100% and 96%, respectively.
